Laboratory results: US7653428B2, “Methods for diagnosing a neurodegenerative condition” (The Brigham and Women's Hospital, Inc., priority 2000, dated 2010)

B1: catalase: antioxidant scavenging enzyme (protein, UniProt P04040 2-527, looked up)
Catalase: ADSRDPASDQMQHWKEQRAAQKADVLTTGAGNPVGDKLNVITVGPRGPLLVQDVVFTDEMAHFDRERIPERVVHAKGAGAFGYFEVTHDITKYSKAKVFEHIGKKTPIAVRFSTVAGESGSADTVRDPRGFAVKFYTEDGNWDLVGNNTPIFFIRDPILFPSFIHSQKRNPQTHLKDPDMVWDFWSLRPESLHQVSFLFSDRGIPDGHRHMNGYGSHTFKLVNANGEAVYCKFHYKTDQGIKNLSVEDAARLSQEDPDYGIRDLFNAIATGKYPSWTFYIQVMTFNQAETFPFNPFDLTKVWPHKDYPLIPVGKLVLNRNPVNYFAEVEQIAFDPSNMPPGIEASPDKMLQGRLFAYPDTHRHRLGPNYLHIPVNCPYRARVANYQRDGPMCMQDNQGGAPNYYPNSFGAPEQQPSALEHSIQYSGEVRRFNTANDDNVTQVRAFYVNVLNEEQRKRLCENIAGHLKDAQIFIQKKAVKNFTEVHPDYGSHIQALLDKYNAEKPKNAIHTFVQSGSHLAAREKANL

How the values were obtained:
[1] = system: hTSLP (human total soluble lens protein); assay: Turbidity assay of human total soluble lens protein aggregation (absorbance at 400 nm); assay type: biochemical; conditions: for promotion of hTSLP/hTLP aggregation: hTSLP 1 mg/ml, 37° C. in the dark, peptide added; for effect on Aβ-potentiated hTSLP aggregation: added during incubation of hTSLP with hAβ1-42
Experimental: Human lenses with intact capsules were dissected from whole globes and homogenized in 1 mL HPLC water. The homogenate was centrifuged for at 100,000×g for 1 hour at 4° C. and the supernatant utilized as hTLSP. Protein concentration was determined using a commercially available kit (Pierce). The final hTSLP concentration was 1 mg/mL.
Test solutions of hTSLP (1 mg/ml) were plated to a final volume of 200 μL per well in 96 well microtiter plates with black sidewalls. Peptides and/or inhibitors were added to these solutions as indicated. Plates were incubated in the dark at 37° C. under humidified, CO2-balanced conditions. Turbidity (optical density) was assessed on a SpectraMax-Plus spectrophotometric plate reader set at a wavelength of 400 nm.
(§1) Aggregation experiments were carried out in 96 well black micro titer plates, in the 2dark. Depending on the experiment, a combination of 20 μL of 10× lenticular protein (final concentration 1 mg/mL), 20 μL of 10× chelator solution (final concentration 200 μM), 20 μL of Catalase and/or SOD (final concentrations of 500 U/mL and 100 U/mL respectively), 20 μL of Aβ (final concentration of 10 μM), 20 μL of metal solution (final concentration 1 μM), and an amount of PBS buffer to bring the total volume in the well to 200 μL. hTLP aggregation or bTLP aggregation was monitored by observing an increase in absorbance at 400 nm using a Spectramax UV-V is spectrophotometer.

[2] = system: hTSLP (human total soluble lens protein); assay: Thioflavin-T fluorescence (total β-sheet content of protein mixture); assay type: biochemical; conditions: added during incubation of hTSLP with hAβ1-42
Experimental: Fluorescence assays were conducted according to a standard protocols.
To determine whether the Aβ-induced aggregation of hTSLP was accompanied by conformational changes, the total β-sheet content of the protein mixture was measured by monitoring thioflavin-T fluorescence.

[3] = system: bTLP (bovine lens protein); assay: Spontaneous bovine lens protein (bTLP) aggregation, absorbance at 400 nm; assay type: biochemical; conditions: 37° C. in the dark
Experimental: Filtered phosphate buffered saline solution (pH 7.4) was treated with chelex and used to make stock solutions (10×) for all reagents (chemical or biological). Protein stock solution at a concentration of 10 mg/mL was prepared from the supernatant as described above. Stock solutions of chelators (ethylenediaminetetraacetic acid (EDTA), diethylenetriaminepentaacetic acid (DTPA), or triethylenetetramine (TETA)) were made up at a concentration of 2 mM freshly prepared in PBS. Stock solutions of Catalase and SOD were freshly prepared in PBS to have an activity of 5000 U/mL and 1000 U/mL respectively. Aβ was prepared as a suspension (100 uM) in PBS or HPLC water by sonicating for three minutes such that only monomers or dimers remained. Metals were prepared as a 10 μM solution; Cu is prepared as Cu:glycine (1:6) from copper sulfate.
as §1
The influence of Reactive Oxygen Species ((ROS), Cu/Zn Superoxide Dismutase (SOD), Catalase (Cat)) on spontaneous bTLP aggregation was analyzed.

[4] = system: hTSLP (human total soluble lens protein); assay: Precipitation study of hTSLP incubated with hAβ1-42; assay type: biochemical; conditions: added during incubation of hTSLP with hAβ1-42
Experimental: Solutions of hTSLP (1 mg/ml) were incubated with or without hAβ1-42 (10 μM; 45 μg/ml) for 0 or 7 days. The resulting mixtures were then centrifuged at 15,000×g for 15 min and separated into pellet and supernatant fractions. The amount of pelleted protein was calculated by subtracting the supernatant protein concentration on Day 7 from the initial concentration on Day 0.

[5] = cited from earlier work

| Molecule | promotion of hTSLP/hTLP aggregation [1] | promotion of hTSLP/hTLP aggregation ([1]; listed as insulin) | effect on increased β-sheet content [2] | effect on Aβ-potentiated hTSLP aggregation [1] | effect on bTLP aggregation [3] | effect on protein precipitation [4] | absolute log Ks for Cu ([5]; Cu) | absolute log Ks for Fe ([5]; Fe) | absolute log Ks for Zn ([5]; Zn) |
| --- | --- | --- | --- | --- | --- | --- | --- | --- | --- |
| recombinant human insulin: recombinant human insulin, negative control of approximately the same molecular weight as Aβ | none | no effect on hTLP aggregation |  |  |  |  |  |  |  |
| O=C(O)CN(CCN(CC(=O)O)CC(=O)O)CCN(CC(=O)O)CC(=O)O [DTPA, diethylenetriaminepentaacetic acid] |  |  | blocked | abolished aggregation | reduces the extent of bTLP aggregation | blocked | 22.0 | 28.1 | 19.3 |
| synthetic rat Aβ1-40: synthetic rat β-amyloid peptide 1-40, relatively redox inert control peptide (DAEFGHDSGFEVRHQKLVFFAEDVGSNKGAIIGLMVGGVV; Amyloid-beta protein 40; UniProt P08592 672-711, looked up) | none |  |  |  |  |  |  |  |  |
| O=C(O)CN(CCN(CC(=O)O)CC(=O)O)CC(=O)O [EDTA, ethylenediaminetetraacetic acid] |  |  |  |  | reduces the extent of bTLP aggregation |  |  |  |  |
| superoxide dismutase: antioxidant scavenging enzyme |  |  | blocked | abolished aggregation | reduces the extent of bTLP aggregation | blocked |  |  |  |
| B1 |  |  | blocked | abolished aggregation | reduces the extent of bTLP aggregation | blocked |  |  |  |
